Laboratory results taken from publication PMC12655637, “Design, Synthesis, and Mechanistic Study of Novel Ciprofloxacin/Thiazole Chalcone Hybrids as Potential Anticancer Agents” (Pharmaceuticals, 2025).

What was measured:
Test in all cases: NCI-60 screening, one-dose (10 µM) and five-dose, SRB
CCRF-CEM = assay type: cell-based, human
K-562 = assay type: cell-based, human
RPMI-8226 = assay type: cell-based, human
SR = assay type: cell-based, human; conditions: five-dose
EKVX = assay type: cell-based, human
HOP-92 = assay type: cell-based, human
NCI-H226 = assay type: cell-based, human
NCI-H23 = assay type: cell-based, human
NCI-H460 = assay type: cell-based, human; conditions: five-dose, NCI-H460
COLO 205 = assay type: cell-based, human
HCC-2998 = assay type: cell-based, human
HCT-116 = assay type: cell-based, human; conditions: five-dose, HCT-116
KM12 = assay type: cell-based, human; conditions: five-dose, KM12
SW-620 = assay type: cell-based, human
SF-268 = assay type: cell-based, human
SF-295 = assay type: cell-based, human
SK-MEL-2 = assay type: cell-based, human
UACC-257 = assay type: cell-based, human
OVCAR-4 = assay type: cell-based, human
786−0 = assay type: cell-based, human
ACHN = assay type: cell-based, human
CAKI-1 = assay type: cell-based
RXF 393 = assay type: cell-based; conditions: Homo sapiens; 10 μM; RXF 393, Renal Cancer; read-out: Growth percentage
SN12C = assay type: cell-based, human
TK-10 = assay type: cell-based, human
DU-145 = assay type: cell-based, human
MCF7 = assay type: cell-based, human
MDA-MB231/ATCC = assay type: cell-based
HS 578T = assay type: cell-based, human
MDA-MB-468 = assay type: cell-based, human; conditions: Homo sapiens
Excerpt: Control cells Test cells FLD
available usually at NCI library.
An aliquot of frozen drug concentrate is […]

[1] = Homo sapiens, five-dose, read-out: LC50 (the source's name)
[2] = Homo sapiens, K562, five-dose, K-562
[3] = Homo sapiens, read-out: LC50 (the source's name)
[4] = Homo sapiens, five-dose, HOP-92
[5] = Homo sapiens, five-dose, NCI-H226
[6] = Homo sapiens, five-dose, NCI-H23
[7] = Homo sapiens, five-dose, COLO 205
[8] = Homo sapiens, five-dose, HCC-2998
[9] = Homo sapiens, five-dose, SW-620
[10] = Homo sapiens, five-dose, SF-268
[11] = Homo sapiens, five-dose, SF-295
[12] = Homo sapiens, five-dose, SK-MEL-2
[13] = Homo sapiens, five-dose, UACC-257
[14] = Homo sapiens, five-dose, OVCAR-4
[15] = Homo sapiens, 10 μM, Renal Cancer, read-out: Growth percentage
[16] = Homo sapiens, five-dose, CAKI-1
[17] = Homo sapiens, five-dose, DU-145

## Cc1nc(SCC(=O)N2CCN(c3cc4c(cc3F)c(=O)c(C(=O)O)cn4C3CC3)CC2)sc1C(=O)/C=C/c1cccc(F)c1 [Compound 4d, (E)-1-Cyclopropyl-6-fluoro-7-(4-(2-((5-(3-(3-fluorophenyl)acryloyl)-4-methylthiazol-2-yl)thio)acetyl)piperazin-1-yl)-4-oxo-1,4-dihydroquinoline-3-carboxylic Acid]
CCRF-CEM; Homo sapiens, 10 μM, Leukemia, read-out: Growth percentage
  activity at 10 µM: 17.1%
CCRF-CEM; Homo sapiens, five-dose
  GI50: 2.88 µM
  IC50: 4.37 µM
CCRF-CEM; [1]
  CC50: > 100 µM
CCRF-CEM; five-dose
  TGI: 4.3 µM
K-562; Homo sapiens, K562, 10 μM, K-562, Leukemia, read-out: Growth percentage
  activity at 10 µM: 56.1%
K-562; [2]
  GI50: 1.58 µM
  IC50: 2.4 µM
K-562; Homo sapiens, K562, five-dose, K-562, read-out: LC50 (the source's name)
  CC50: 9.12 µM
K-562; five-dose, K-562
  TGI: 8.7 µM
RPMI-8226; Homo sapiens, RPMI-8226, RPMI-8226
  IC50: 0.3 µM
RPMI-8226; Homo sapiens, RPMI-8226, five-dose, RPMI-8226
  IC50: 0.34 µM
RPMI-8226; Homo sapiens, five-dose, RPMI-8226
  GI50: 0.19 µM
RPMI-8226; Homo sapiens, five-dose, RPMI-8226, read-out: LC50 (the source's name)
  CC50: 0.6 µM
RPMI-8226; five-dose, RPMI-8226
  TGI: 2.63 µM
SR; Homo sapiens
  GI50: 1.4 µM
  IC50: 2.3 µM
SR; [3]
  CC50: 5.3 µM
SR
  TGI: 100.0 µM
EKVX; Homo sapiens, 10 μM, Non-Small-Cell Lung Cancer, read-out: Growth percentage
  activity at 10 µM: 70.2%
EKVX; Homo sapiens, five-dose
  GI50: 1.7 µM
  IC50: 5.9 µM
EKVX; [1]
  CC50: > 100 µM
EKVX; five-dose
  TGI: 100.0 µM
HOP-92; Homo sapiens, 10 μM, HOP-92, Non-Small-Cell Lung Cancer, read-out: Growth percentage
  activity at 10 µM: 91.9%
HOP-92; [4]
  GI50: > 100 µM
  IC50: > 100 µM
  LC50 (concentration killing 50% of cells): > 100 µM
HOP-92; five-dose, HOP-92
  TGI: 100.0 µM
NCI-H226; Homo sapiens, 10 μM, NCI-H226, Non-Small-Cell Lung Cancer, read-out: Growth percentage
  activity at 10 µM: 70.9%
NCI-H226; [5]
  GI50: > 100 µM
  IC50: > 100 µM
  LC50 (concentration killing 50% of cells): > 100 µM
NCI-H226; five-dose, NCI-H226
  TGI: 100.0 µM
NCI-H23; Homo sapiens, 10 μM, NCI-H23, Non-Small-Cell Lung Cancer, read-out: Growth percentage
  activity at 10 µM: 45.6%
NCI-H23; [6]
  GI50: > 100 µM
  IC50: > 100 µM
  LC50 (50% lethal concentration): > 100 µM
NCI-H23; five-dose, NCI-H23
  TGI: 100.0 µM
NCI-H460; Homo sapiens
  GI50: > 100 µM
  IC50: > 100 µM
NCI-H460; [3]
  CC50: > 100 µM
NCI-H460
  TGI: 100.0 µM
COLO 205; Homo sapiens, 10 μM, COLO 205, Colon Cancer, read-out: Growth percentage
  activity at 10 µM: 102%
COLO 205; [7]
  GI50: 4.9 µM
  IC50: 9.3 µM
COLO 205; Homo sapiens, five-dose, COLO 205, read-out: LC50 (the source's name)
  CC50: > 100 µM
COLO 205; five-dose, COLO 205
  TGI: 19.95 µM
HCC-2998; Homo sapiens, 10 μM, HCC-2998, Colon Cancer, read-out: Growth percentage
  activity at 10 µM: -29%
HCC-2998; [8]
  GI50: 1.4 µM
  IC50: 8.5 µM
HCC-2998; Homo sapiens, five-dose, HCC-2998, read-out: LC50 (the source's name)
  CC50: > 100 µM
HCC-2998; five-dose, HCC-2998
  TGI: 0.42 µM
HCT-116; Homo sapiens
  GI50: 0.21 µM
  IC50: 0.34 µM
HCT-116
  TGI: 100.0 µM
KM12; Homo sapiens
  GI50: 0.52 µM
  IC50: 0.69 µM
  LC50: 6.92 µM
KM12
  TGI: 97.7 µM
SW-620; Homo sapiens, 10 μM, SW-620, Colon Cancer, read-out: Growth percentage
  activity at 10 µM: 3.2%
SW-620; [9]
  GI50: 3.7 µM
  IC50: 4.7 µM
SW-620; Homo sapiens, five-dose, SW-620, read-out: LC50 (the source's name)
  CC50: > 100 µM
SW-620; five-dose, SW-620
  TGI: 100.0 µM
SF-268; Homo sapiens, 10 μM, SF-268, CNS Cancer, read-out: Growth percentage
  activity at 10 µM: 25.7%
SF-268; [10]
  GI50: 27.5 µM
  IC50: > 100 µM
SF-268; Homo sapiens, five-dose, SF-268, read-out: LC50 (the source's name)
  CC50: > 100 µM
SF-268; five-dose, SF-268
  TGI: 100.0 µM
SF-295; Homo sapiens, 10 μM, SF-295, CNS Cancer, read-out: Growth percentage
  activity at 10 µM: 93.1%
SF-295; [11]
  GI50: > 100 µM
  IC50: > 100 µM
SF-295; Homo sapiens, five-dose, SF-295, read-out: LC50 (the source's name)
  CC50: > 100 µM
SF-295; five-dose, SF-295
  TGI: 8.7 µM
SK-MEL-2; Homo sapiens, 10 μM, SK-MEL-2, Melanoma, read-out: Growth percentage
  activity at 10 µM: -15.4%
SK-MEL-2; [12]
  GI50: > 100 µM
  IC50: > 100 µM
SK-MEL-2; Homo sapiens, five-dose, SK-MEL-2, read-out: LC50 (the source's name)
  CC50: > 100 µM
SK-MEL-2; five-dose, SK-MEL-2
  TGI: 100.0 µM
UACC-257; Homo sapiens, 10 μM, UACC-257, Melanoma, read-out: Growth percentage
  activity at 10 µM: 53.9%
UACC-257; [13]
  GI50: 46.8 µM
  IC50: > 100 µM
UACC-257; Homo sapiens, five-dose, UACC-257, read-out: LC50 (the source's name)
  CC50: > 100 µM
UACC-257; five-dose, UACC-257
  TGI: 100.0 µM
OVCAR-4; Homo sapiens, 10 μM, OVCAR-4, Ovarian Cancer, read-out: Growth percentage
  activity at 10 µM: 94.5%
OVCAR-4; [14]
  GI50: > 100 µM
  IC50: > 100 µM
OVCAR-4; Homo sapiens, five-dose, OVCAR-4, read-out: LC50 (the source's name)
  CC50: > 100 µM
OVCAR-4; five-dose, OVCAR-4
  TGI: 100.0 µM
786−0; Homo sapiens, 10 μM, 786−0, Renal Cancer, read-out: Growth percentage
  activity at 10 µM: 41.9%
786−0; Homo sapiens, five-dose, 786−0
  IC50: > 100 µM
786−0; Homo sapiens, five-dose, 786−0, read-out: LC50 (the source's name)
  CC50: > 100 µM
786−0; five-dose, 786−0
  TGI: 100.0 µM
ACHN; [15]
  activity at 10 µM: 94.4%
ACHN; Homo sapiens, five-dose
  GI50: > 100 µM
  IC50: > 100 µM
ACHN; [1]
  CC50: > 100 µM
ACHN; five-dose
  TGI: 100.0 µM
CAKI-1; Homo sapiens, 10 μM, CAKI-1, Renal Cancer, read-out: Growth percentage
  activity at 10 µM: 79.8%
CAKI-1; [16]
  GI50: > 100 µM
  IC50: > 100 µM
CAKI-1; Homo sapiens, five-dose, CAKI-1, read-out: LC50 (the source's name)
  CC50: > 100 µM
CAKI-1; five-dose, CAKI-1
  TGI: 100.0 µM
RXF 393
  activity at 10 µM: -25.9%
SN12C; [15]
  activity at 10 µM: 27.7%
SN12C; Homo sapiens, five-dose
  GI50: > 100 µM
  IC50: > 100 µM
SN12C; [1]
  CC50: > 100 µM
SN12C; five-dose
  TGI: 100.0 µM
TK-10; Homo sapiens, 10 μM, TK-10, Renal Cancer, read-out: Growth percentage
  activity at 10 µM: 97.5%
TK-10; Homo sapiens, five-dose, TK-10
  GI50: > 100 µM
  IC50: > 100 µM
TK-10; Homo sapiens, five-dose, TK-10, read-out: LC50 (the source's name)
  CC50: > 100 µM
TK-10; five-dose, TK-10
  TGI: 100.0 µM
DU-145; Homo sapiens, 10 μM, DU-145, Prostate Cancer, read-out: Growth percentage
  activity at 10 µM: 73.7%
DU-145; [17]
  GI50: > 100 µM
  IC50: > 100 µM
DU-145; Homo sapiens, five-dose, DU-145, read-out: LC50 (the source's name)
  CC50: > 100 µM
DU-145; five-dose, DU-145
  TGI: 100.0 µM
MCF7; Homo sapiens, MCF7, 10 μM, MCF7, Breast Cancer, read-out: Growth percentage
  activity at 10 µM: -57.6%
MCF7; Homo sapiens, five-dose, MCF7
  GI50: 0.49 µM
  IC50: 0.69 µM
MCF7; Homo sapiens, five-dose, MCF7, read-out: LC50 (the source's name)
  CC50: > 100 µM
MCF7; five-dose, MCF7
  TGI: 100.0 µM
MDA-MB231/ATCC; Homo sapiens, MDA-MB-231
  GI50: > 100 µM
  IC50: > 100 µM
MDA-MB231/ATCC; Homo sapiens, five-dose, MDA-MB-231/ATCC, read-out: LC50 (the source's name)
  CC50: > 100 µM
MDA-MB231/ATCC; five-dose, MDA-MB-231/ATCC
  TGI: 100.0 µM
HS 578T; Homo sapiens, 10 μM, Breast Cancer, read-out: Growth percentage
  activity at 10 µM: 36.2%
HS 578T; Homo sapiens, five-dose
  GI50: > 100 µM
  IC50: > 100 µM
HS 578T; [1]
  CC50: > 100 µM
HS 578T; five-dose
  TGI: 28.2 µM
MDA-MB-468; MDA-MB-468, 10 μM, MDA-MB-468, Breast Cancer, read-out: Growth percentage
  activity at 10 µM: -11.1%
MDA-MB-468; five-dose, MDA-MB-468
  GI50: 4.1 µM
  IC50: > 100 µM
MDA-MB-468; five-dose, MDA-MB-468, read-out: LC50 (the source's name)
  CC50: > 100 µM
